# Legend:
# Assay type in all cases: biochemical
# FXa = FXa (Homo sapiens, UniProt P00742); experiment: Determination of selectivity: FXa inhibition, chromogenic substrate S2765 assay; conditions: fold selectivity for FXIIa over FXa
# Summary of the method: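 Human FXa (5 nM) preincubated with compound (top 500 μM, 5% DMSO) 10 min at 37 °C in 50 mM Tris, 137 mM NaCl pH 7.4, then S2765 ([…]) added; A405 kinetics over 3 h at 37 °C. IC50 from initial rates, converted to Ki via Cheng-Prusoff.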
# FXIIa = target: T1, FXIIa (Homo sapiens, UniProt P00748); experiment: Determination of Factor XIIa inhibition, chromogenic substrate S-2302 assay; conditions: human FXIIa alpha
# T1 sequence (P00748 373-615 limits assumed): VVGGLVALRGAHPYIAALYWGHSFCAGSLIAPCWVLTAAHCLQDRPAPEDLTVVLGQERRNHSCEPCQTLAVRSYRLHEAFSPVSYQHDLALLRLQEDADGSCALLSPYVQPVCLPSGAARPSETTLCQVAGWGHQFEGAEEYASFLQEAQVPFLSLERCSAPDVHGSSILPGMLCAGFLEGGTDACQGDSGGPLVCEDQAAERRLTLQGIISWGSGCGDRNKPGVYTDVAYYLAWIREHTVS
# T1 sequence (P00748 20-372 partner limits assumed): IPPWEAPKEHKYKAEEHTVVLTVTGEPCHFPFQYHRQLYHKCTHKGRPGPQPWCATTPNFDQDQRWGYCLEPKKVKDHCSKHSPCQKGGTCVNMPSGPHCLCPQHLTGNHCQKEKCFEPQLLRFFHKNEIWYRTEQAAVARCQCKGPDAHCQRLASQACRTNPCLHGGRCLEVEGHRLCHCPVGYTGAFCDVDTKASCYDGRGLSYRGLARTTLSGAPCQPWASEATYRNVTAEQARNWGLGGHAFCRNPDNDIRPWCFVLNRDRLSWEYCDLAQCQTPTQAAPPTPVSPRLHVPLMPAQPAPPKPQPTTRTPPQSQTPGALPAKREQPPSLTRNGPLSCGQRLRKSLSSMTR
# Summary of the method: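 FXIIa (10 nM) preincubated with compound 10 min at 37° C. in 50 mM Tris, 137 mM NaCl pH 7.4, 5% DMSO, top concentration 500 μM, then S-2302 added ([…]). Absorbance at 405 nm read kinetically for 3 h; IC50 from initial rates, converted to Ki by Cheng-Prusoff.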
# thrombin = target: T2, thrombin (Homo sapiens, UniProt P00734); experiment: Determination of selectivity: thrombin inhibition, chromogenic substrate GPR assay; conditions: fold selectivity for FXIIa over thrombin
# T2 construct: FXa (5 nM) and thrombin (5 nM)
# Summary of the method: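 Thrombin (5 nM) preincubated with compound 10 min at 37 °C in 50 mM Tris, 137 mM NaCl, pH 7.4, 5% DMSO, then GPR substrate ([…]) added. Absorbance at 405 nm read kinetically for 3 h; IC50 from initial rates, converted to Ki via Ki=IC50/(1+[S]/Km).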
# Chain of FXa (P00742 235-488 limits assumed): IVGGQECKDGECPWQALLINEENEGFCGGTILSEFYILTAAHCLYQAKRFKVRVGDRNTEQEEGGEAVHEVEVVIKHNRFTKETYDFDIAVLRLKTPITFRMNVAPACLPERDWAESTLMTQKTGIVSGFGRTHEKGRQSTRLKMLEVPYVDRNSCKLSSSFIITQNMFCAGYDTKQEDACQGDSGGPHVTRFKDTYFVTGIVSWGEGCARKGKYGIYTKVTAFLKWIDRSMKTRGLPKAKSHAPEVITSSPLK
# Chain of FXa (P00742 41-179 partner limits assumed): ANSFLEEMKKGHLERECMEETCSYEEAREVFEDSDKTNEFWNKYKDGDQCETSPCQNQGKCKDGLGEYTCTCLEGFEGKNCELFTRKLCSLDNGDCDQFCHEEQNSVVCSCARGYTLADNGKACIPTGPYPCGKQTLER
Compound,FXa (human)/FXIIa alpha (human) (FXa),Ki (FXIIa) [nM],Thrombin (human)/FXIIa alpha (human) (thrombin)
Cn1nnc2cc(CNC(=O)[C@@H]3C[C@@H](Cc4ccc(OC(F)(F)F)cc4)CN3C(=O)[C@H]3C[C@@H](c4ccccc4)CN3)ccc21 [Example M05362],∘∘,200 to 2000,++ (fold selectivity value of 10 to 100)
Cn1nnc2cc(CNC(=O)[C@@H]3C[C@@H](Cc4ccc(-c5cn[nH]c5)cc4)CN3C(=O)[C@H]3C[C@@H](c4ccccc4)CN3)ccc21 [Example M05364],∘∘,> 2000,++ (fold selectivity value of 10 to 100)
COc1ccc(C[C@@H]2C[C@@H](C(=O)NCc3ccc4c(c3)nnn4C)N(C(=O)[C@H]3CC(c4ccccc4C)CN3)C2)cc1 (stereo partly drawn) [Example M05365],∘∘∘,200 to 2000,+++ (fold selectivity values greater than 100)
Cn1nnc2cc(CNC(=O)[C@@H]3C[C@@H](Cc4cccc(Br)c4)CN3C(=O)[C@H]3C[C@@H](c4ccccc4)CN3)ccc21 [Example M05366],∘∘,200 to 2000,++ (fold selectivity value of 10 to 100)
Cn1nccc1-c1ccc(C[C@@H]2C[C@@H](C(=O)NCc3ccc4c(c3)nnn4C)N(C(=O)[C@H]3C[C@@H](c4ccccc4)CN3)C2)cc1 [Example M05367],∘∘∘,200 to 2000,+++ (fold selectivity values greater than 100)
COc1ccc(C[C@@H]2C[C@@H](C(=O)NCc3ccc4c(c3)nnn4C)N(C(=O)[C@@H]3NCCc4ccccc43)C2)cc1 [Example M05368],∘∘,> 2000,++ (fold selectivity value of 10 to 100)
Cn1nnc2cc(CNC(=O)[C@@H]3C[C@@H](Cc4cccc5c4CCO5)CN3C(=O)[C@H]3C[C@@H](c4ccccc4)CN3)ccc21 [Example M05371],∘∘,> 2000,++ (fold selectivity value of 10 to 100)
Cn1nnc2cc(CNC(=O)[C@@H]3C[C@@H](Cc4ccc(S(C)(=O)=O)cc4)CN3C(=O)[C@H]3C[C@@H](c4ccccc4)CN3)ccc21 [Example M05372],∘∘∘,200 to 2000,++ (fold selectivity value of 10 to 100)
Cn1nnc2cc(CNC(=O)[C@@H]3C[C@@H](Cc4ccc(Cl)cc4Cl)CN3C(=O)[C@H]3C[C@@H](c4ccccc4)CN3)ccc21 [Example M05373],∘∘,200 to 2000,++ (fold selectivity value of 10 to 100)
COc1ccc(C[C@@H]2C[C@@H](C(=O)NCc3ccc4c(c3)nnn4C)N(C(=O)[C@H]3C[C@@H](c4ccccc4)CCN3)C2)cc1 [Example M05374],∘∘,> 2000,++ (fold selectivity value of 10 to 100)
COc1ccc(C[C@@H]2C[C@@H](C(=O)NCc3ccc4c(c3)nnn4C)N(C(=O)[C@H]3CC(c4ccnn4C)CN3)C2)cc1 (stereo partly drawn) [Example M05376],∘∘,> 2000,++ (fold selectivity value of 10 to 100)
COc1ccc(C[C@@H]2C[C@@H](C(=O)NCc3ccc4c(c3)nnn4C)N(C(=O)[C@H]3CC(c4ccccc4F)CN3)C2)cc1 (stereo partly drawn) [Example M05377],∘∘∘,200 to 2000,+++ (fold selectivity values greater than 100)
COc1ccc(C[C@@H]2C[C@@H](C(=O)NCc3ccc4c(c3)nnn4C)N(C(=O)[C@H]3CC(c4ccccc4OC)CN3)C2)cc1 (stereo partly drawn) [Example M05378],∘∘∘,200 to 2000,++ (fold selectivity value of 10 to 100)
COc1ccc(C[C@@H]2C[C@@H](C(=O)NCc3ccc4c(c3)nnn4C)N(C(=O)[C@H](N)CC(O)c3ccccc3)C2)cc1 (stereo partly drawn) [Example M05379],∘∘∘,200 to 2000,+++ (fold selectivity values greater than 100)
Cn1nnc2cc(CNC(=O)[C@@H]3C[C@@H](Cc4cccc5c4CCO5)CN3C(=O)[C@H](N)CCC(=O)N3CCCC3)ccc21 [Example M05380],∘∘∘,200 to 2000,+++ (fold selectivity values greater than 100)
COc1ccc(C[C@@H]2C[C@@H](C(=O)NCc3ccc4c(c3)nnn4C)N(C(=O)[C@H]3C[C@@H](c4cnn(C)c4)CN3)C2)cc1 [Example M05381],∘∘∘,200 to 2000,+++ (fold selectivity values greater than 100)
CCOc1ccc(C[C@@H]2C[C@@H](C(=O)NCc3ccc4c(c3)nnn4C)N(C(=O)[C@H]3C[C@@H](c4ccccc4)CN3)C2)cc1 [Example M05382],∘∘∘,200 to 2000,+++ (fold selectivity values greater than 100)
COc1ccc(C[C@@H]2C[C@@H](C(=O)NCc3ccc4c(c3)nnn4C)N(C(=O)[C@H]3C[C@@H](Cc4ccccc4)CN3)C2)cc1 [Example M05383],∘∘∘,200 to 2000,++ (fold selectivity value of 10 to 100)
Cn1nnc2cc(CNC(=O)[C@@H]3C[C@@H](Cc4ccc(S(C)(=O)=O)cc4)CN3C(=O)[C@H](N)CCC(=O)N3CCCC3)ccc21 [Example M05384],∘∘∘,200 to 2000,+++ (fold selectivity values greater than 100)
COc1ccc(C[C@@H]2C[C@@H](C(=O)NCc3ccc4c(c3)nnn4C)N(C(=O)[C@H]3C[C@@H](c4ncccn4)CN3)C2)cc1 [Example M05387],∘∘∘,200 to 2000,+++ (fold selectivity values greater than 100)
COc1ccc(C[C@@H]2C[C@@H](C(=O)NCc3ccc4c(c3)nnn4C)N(C(=O)[C@H]3C[C@@H](c4ccccc4OC(F)(F)F)CN3)C2)cc1 [Example M05388],∘∘∘,200 to 2000,+++ (fold selectivity values greater than 100)
"COc1ccc(C[C@@H]2C[C@@H](C(=O)NCc3ccc4c(c3)nnn4C)N(C(=O)[C@H]3C[C@@H](c4ccccc4)CN3C)C2)cc1 [Example M05389, (2S,4R)-4-(4-Methoxy-benzyl)-1-((2R,4S)-1-methyl-4-phenyl-pyrrolidine-2-carbonyl)-pyrrolidine-2-carboxylic acid (1-methyl-1H-benzotriazol-5-ylmethyl)-amide]",∘∘∘,200 to 2000,+++ (fold selectivity values greater than 100)
Cn1nnc2cc(CNC(=O)[C@@H]3C[C@@H](Cc4ccc5c(c4)OCO5)CN3C(=O)[C@H]3C[C@@H](c4ccccc4)CN3)ccc21 [Example M05390],∘∘∘,200 to 2000,++ (fold selectivity value of 10 to 100)
COc1ccc(C[C@@H]2C[C@@H](C(=O)NCc3ccc4c(c3)nnn4C)N(C(=O)[C@H](N)CCC(=O)N3CCCC3C)C2)cc1 (stereo partly drawn) [Example M05391],∘∘∘,< 200,+++ (fold selectivity values greater than 100)
COc1ccc(C[C@@H]2C[C@@H](C(=O)NCc3ccc4c(c3)nnn4C)N(C(=O)[C@H](N)CCC(=O)N3CCCC3C(F)(F)F)C2)cc1 (stereo partly drawn) [Example M05392],∘∘∘,< 200,+++ (fold selectivity values greater than 100)
COc1ccc(C[C@@H]2C[C@@H](C(=O)NCc3ccc4c(c3)nnn4C)N(C(=O)[C@H](N)CCC(=O)N3CCNCC3)C2)cc1 [Example M05393],∘∘∘,200 to 2000,+++ (fold selectivity values greater than 100)
COc1ccc(C[C@@H]2C[C@@H](C(=O)NCc3ccc4c(c3)nnn4C)N(C(=O)[C@H](N)CCC(=O)N3[C@H]4CC[C@@H]3CC4)C2)cc1 [Example M05394],∘∘∘,200 to 2000,+++ (fold selectivity values greater than 100)

# Reference: patent publication US12336991B2, “Factor XIIA inhibitors” (UNIVERSITY OF LEEDS, priority 2018, dated 2025)
